From patent US20220000817A1, “PROGNOSIS AND TREATMENT OF METASTATIC CANCER” (Academia Sinica, priority 2018, published 2022)
Where a SMILES comes first, the peptide text is derived from it. The star is where a group is joined. Cbz = O=C(OCc1ccccc1)*

Columns and labels:
[1] = tested on: EFHD2; assay: Ibuprofen-induced EFHD2 degradation with proteasome/lysosome inhibitors, western blot; assay type: cell-based, human; conditions: for effect on ibuprofen-induced EFHD2 degradation: H1299 cells pretreated 0.5 hr, then 600 μM ibuprofen
Method: FIG. 6. Ibuprofen activates both proteasomal and lysosomal degradation of EFHD2. H1299 cells were pretreated with MG132 and/or Baf-A1 for 0.5 hr, then followed by the treatment of 600 μM ibuprofen for the indicated time. EFHD2 expression was determined by western blot assay.
Western blot analysis. Proteins were separated using 10% or 12.5% SDS-PAGE and transferred onto a PVDF membrane via electroblotting at 400V at 4° C. for 3 hr in 25 mmol/L Tris-HCl, 197 mmol/L glycine, and 13.3% (v/v) methanol. Then, 5% (w/v) skim milk in TBST was used for the blocking reaction, and the primary antibodies were incubated at room temperature overnight. After TBST washes, horseradish peroxidase-conjugated secondary antibodies were further incubated at room temperature for 1 hr. […] The primary antibodies used in this study included EFHD2 (ab106667; abcam), E-cadherin (#5296; Cell Signaling), vimentin (#3932; Cell Signaling), CAV1 (#3238; Cell Signaling), and β-actin (ab8226; abeam).
As ubiquitin-proteasome pathway and autophagy-lysosome pathway are two major systems responsible for cellular protein degradation, we then investigated whether any of the two systems has involved in ibuprofen-mediated EFHD2 degradation.

[2] = tested on: EFHD2; assay: Western blot of EFHD2 expression in cancer cells; assay type: cell-based, human; conditions: H1299 and F4 cells
Method: Cell lines and cell culture. Human lung adenocarcinoma cells A549 and H1299 were obtained from the American Type Culture Collection (ATCC, Maryland, USA). Human lung adenocarcinoma cell lines CL1-0 were from National Taiwan University Hospital, Taipei, Taiwan. Cell line CL1-5-F4 (F4) was established by selection of increasingly invasive cell populations from CL1-0 in according to procedures described by Chu Y W et al (Am J Respir Cell Mol Biol (1997) 17:353-360). H1299 and F4 cells were cultured in DMEM/F-12 media (Invitrogen). A549 and CL1-0 cells were maintained in RPMI 1640 media (Invitrogen). All culture media were supplemented with 10% fetal bovine serum and 1% antibiotics (GIBCO). All cells were grown in a humidified atmosphere of 5% CO2 and 95% air at 37° C. Western blot analysis. Proteins were separated using 10% or 12.5% SDS-PAGE and transferred onto a PVDF membrane via electroblotting at […] at 4° C. for 3 hr in 25 mmol/L Tris-HCl, 197 mmol/L glycine, and 13.3% (v/v) methanol. Then, 5% (w/v) skim milk in TBST was used for the blocking reaction, and the primary antibodies were incubated at room temperature overnight. After TBST washes, horseradish peroxidase-conjugated secondary antibodies were further incubated at room temperature for 1 hr. […] The primary antibodies used in this study included EFHD2 (ab106667; abcam), E-cadherin (#5296; Cell Signaling), vimentin (#3932; Cell Signaling), CAV1 (#3238; Cell Signaling), and β-actin (ab8226; abeam). […] Results are illustrated in FIG. 4.

[3] = tested on: H1299 cells; assay: H1299 xenograft mouse model, tumor size; assay type: in vivo, BALB/c nude mice; conditions: cisplatin 5 mg/Kg injection once per week for 3 weeks; ibuprofen 25 mg/Kg orally; alone or in combination
Text: Animals. All procedures (2017-305) involving animal research were approved by the Institutional Animal Care and Use Committee (IACUC) at Chinese Medical University Hospital (CMUH) (Taichung, Taiwan). 5-week-old male BALB/c nude mice (18 to 25 g) were obtained from the National Laboratory Animal Center (Taipei, Taiwan). Mice were maintained in an environment under a 12: 12 hr light/dark cycle with access to food and water ad libitum.
BALB/c nude mice were orthotropically xenografted with H1299 cells (1×10^6 cells) by stereotactic injection in the back. Mouse tumor progression (including growth and metastasis) was measured by IVIS weekly until week 7.
In this example, in vivo effect of the combined treatment of ibuprofen and cisplatin was investigated via the xenograft mouse model established in accordance with the procedures described in the “Materials and methods” section. For treatment purpose, mice were treated with cisplatin (5 mg/Kg, via injection, once per week for 3 weeks) and ibuprofen (25 mg/Kg, orally fed, on the day when cisplatin was injected, and 1 day prior to, and 1 day after the cisplatin injection), alone or in combination. Mice were then sacrificed and the tumors were isolated and further analyzed. Results are depicted in FIG. 9.

[4] = tested on: H1299 cells; assay: MTT cell survival, H1299 shGFP / shEFHD2 cells; assay type: cell-based, human
Method: MTT assay was used to determine cell survival ratio in the control cells (H1299^shGFP) or cells having the expression of EFHD2 being knock-out via interference RNA (H1299^shEFHD2) with or without the treatment of ibuprofen and/or cisplatin.
(§1) MTT assay. […] The absorbance of the solution at 570 nm was measured by spectrophotometer.
In this example, the mechanism of ibuprofen and its combination with a chemotherapeutic drug (i.e., cisplatin) were investigated via comparing their actions on the survival of H1299 cells in the presence or absence of EFHD2. To this purpose, H1299 cells were pre-treated with the present shRNA (i.e., H1299^shEFHD2) to knockdown the expression of EFHD2 in H1299 cells in accordance with procedures described in Example 1; and the control cells were pre-treated with shGFP. Results are depicted in FIG. 7.

[5] = tested on: F4 cells; assay: Sensitization of F4 cells to cisplatin by 2-APAs; assay type: cell-based, human; conditions: F4 cells pre-treated with 20 μM 2-APA, data not shown
Text: In this example, the effect of 2-APAs (e.g., ibuprofen, flurbiprofen, naproxen and ketoprofen) and cisplatin on F4 cells were investigated.

[6] = tested on: EFHD2 mRNA; assay: qPCR of EFHD2 mRNA levels with or without ibuprofen; assay type: cell-based, human; conditions: data not shown
[7] = tested on: A549 cells; assay: MTT cell survival, A549 pcDNA / pEFHD2 cells; assay type: cell-based, human
Method: FIG. 8 Susceptibility of cancer cells lacking endogenous EFHD2 to chemotherapeutic drug is not enhanced by ibuprofen. MTT assay was used to determine cell survival ratio in the control cells (A549^pcDNA) or cells transfecting with vectors that carrying exogenous EFHD2 gene (A549^pEFHD2) with or without the treatment of ibuprofen and/or cisplatin.
as §1
In this example, instead of knocking down the endogenous EFHD2 expression via interference RNA, human lung adenocarcinoma cells A549 having low level of endogenous EFHD2 were used to further elucidate the action of ibuprofen (i.e., enhancing the susceptibility of cancer cells to chemotherapeutic drugs). Results are illustrated in FIG. 8.

[8] = tested on: H1299 and F4 cells; assay: Migration and invasion by matrigel transwell system; assay type: cell-based, human
Method: FIG. 5 Ibuprofen reduced EFHD2 expression in cancer cells. (A) The effect of various doses of ibuprofen on EFHD2 in H1299 and F4 cells were respectively determined by Western blot assay; (B) The effects of ibuprofen on the invasion and migration ability of H1299 and F4 cells were analyzed by matrigel transwell system. Wound healing assay. The in vitro migration assay was performed using a Culture-Insert well (ibidi GmbH, German/v). Cancer cells (4.5×10^4 cells) were cultured in suitable media in the device for 24 hr. After removal of the Culture-Insert, cancer cells were cultured for an additional 8 hr. The migration distance of cancer cells was recorded, and the migration area was measured using ImageJ software. Matrigel invasion assay. For in vitro invasion assay, cancer cells (1.5×10^5 cells in 200 μL) were suspended in the upper half of a PET membrane transwell insert chamber (BD Biosciences), which was coated with Matrigel (1 mg/mL; BD Biosciences), on a 24-well plate. Medium supplemented with 10% FBS was added as a chemoattractant to the lower half After incubation at 37° C. for 24 hr, cancer cells that passed through the insert were fixed with 3.7% formalin (Sigma-Aldrich) and stained with 0.1% crystal violet (Sigma-Aldrich).

Compound | expression of EFHD2 [2] | sensitivity to subsequent cisplatin treatment (cell death) [5] | also measured
CO/C1=C\C(C)=C\[C@@H](C)[C@@H](O)[C@@H](C)C/C(C)=C/C=C/[C@H](OC)[C@@H]([C@@H](C)[C@@H](O)[C@H](C)[C@@]2(O)C[C@@H](O)[C@H](C)[C@@H](C(C)C)O2)OC1=O [Baf-A1, bafilomycin A1] |  |  | effect on ibuprofen-induced EFHD2 degradation [1]: incapable of reducing ibuprofen-induced EFHD2 degradation
CC(C)C[C@@H](C=O)NC(=O)[C@H](CC(C)C)NC(=O)[C@H](CC(C)C)NC(=O)OCc1ccccc1 [MG132] (Cbz-Leu-Leu-Leu-aldehyde) |  |  | effect on ibuprofen-induced EFHD2 degradation [1]: incapable of reducing ibuprofen-induced EFHD2 degradation
CC(=O)Oc1ccccc1C(=O)O [aspirin] | possessed no such effect |  | 
N.N.[Cl][Pt][Cl] [cisplatin] |  |  | size of the tumor [3]: significantly reduce the size of the tumor; survival ratio ([4]; H1299^shGFP and H1299^shEFHD2 cells, cisplatin alone, MTT 24 hours): decreased with an increase in the concentration of cisplatin
O=C(O)Cc1ccccc1Nc1c(Cl)cccc1Cl [diclofenac] | possessed no such effect |  | 
CC(C(=O)O)c1ccc(-c2ccccc2)c(F)c1 (stereo not shown) [flurbiprofen] | effective in suppressing the expression of EFHD2 | more sensitive to the subsequent treatment of cisplatin | 
CC(C)Cc1ccc(C(C)C(=O)O)cc1 (stereo not shown) [ibuprofen] | effective in suppressing the expression of EFHD2 | more sensitive to the subsequent treatment of cisplatin | EFHD2 mRNA levels [6]: did not influence EFHD2 mRNA levels; level of EFHD2 ([2]; various doses of ibuprofen): reduce the level of EFHD2 in a dose-dependent manner; size of the tumor [3]: more effective than cisplatin; survival ratio, combination with cisplatin ([4]; H1299^shEFHD2 cells vs H1299^shGFP+ibuprofen): comparable to the control cells subjecting to the same treatment; survival ratio, combination with cisplatin ([4]; H1299^shGFP cells, ibuprofen (600 and cisplatin (1, 2, 5, 10 or 20 μM))): lower than those treated with cisplatin alone; susceptibility to cisplatin treatment ([7]; A549^pEFHD2 vs A549^pEFHD2+ibuprofen): failed to increase their susceptibilities to cisplatin; susceptibility to cisplatin treatment ([7]; A549^pcDNA vs A549^pcDNA+ibuprofen): no enhanced susceptibility; mechanism of EFHD2 degradation ([1]; H1299 cells, 600 μM ibuprofen): both proteasomal- and lysosomal-dependent mechanism; invasion ability [8]: attenuated; migration ability [8]: attenuated
CC(C(=O)O)c1cccc(C(=O)c2ccccc2)c1 (stereo not shown) [ketoprofen] | effective in suppressing the expression of EFHD2 | more sensitive to the subsequent treatment of cisplatin | 
O=C(c1ccccc1)c1ccc2n1CCC2C(=O)O (stereo not shown) [ketorolac] | possessed no such effect |  | 
Cc1cccc(Nc2ccccc2C(=O)O)c1C [mefenamic acid] | possessed no such effect |  | 
COc1ccc2cc([C@H](C)C(=O)O)ccc2c1 [naproxen] | effective in suppressing the expression of EFHD2 | more sensitive to the subsequent treatment of cisplatin | 
CN1C(C(=O)Nc2ccccn2)=C(O)c2ccccc2S1(=O)=O [piroxicam] | possessed no such effect |  | 
CC1=C(CC(=O)O)c2cc(F)ccc2/C1=C\c1ccc([S+](C)[O-])cc1 (stereo not shown) [sulindac] | possessed no such effect |  | 
